Measurements as given in US20260234150A1, “COMPOUND FOR INHIBITING NLRP3, PREPARATION METHOD, AND USE” (DOVETREE MEDICINES UNUS, INC., priority 2023, published 2026).

Legend:
[1] = target: T1, His6-Flag-TEV-NLRP3 (134-1036) (Homo sapiens, UniProt Q96P20); experiment: NLRP3 fluorescence polarization (FP) binding assay, competition with probe NP3-301; settings: competition with NP3-301 for binding to NLRP3 (134-1036), 30 nM protein
T1 construct: fused on or other part: N-terminal His6 tag, Flag tag and TEV cleavage site
Procedure: This experiment uses fluorescence polarization technology to detect and evaluate the binding assay.
The fluorescent probe used in this assay is the compound NP3-301 in the Journal of Molecular Biology (2021) 433, 167309, which was synthesized with reference to this literature.
His6-Flag-TEV-NLRP3 (134-1036) protein (SEQ NO. 1) was purchased from Kaihuiruizhi Biotech (Shanghai) Co., Ltd. (ChemPartner), and was customed for expression.
Prepare 1× assay buffer: 50 mM Hepes, pH 7.4, 150 mM NaCl, 2.5 mM MgCl2, 0.005% Tween-20, 1 mM TCEP, 100 μM ATP.
First, 2.5 μL of 4× compound solution was added to a black shallow 384-well plate (Greiner, 784076), the shallow well plate was sealed, and centrifuged at 1000 rpm for 1 min; then 2× NLPR3 protein solution (final concentration of 30 nM) was added, the shallow well plate was sealed, centrifuged at 1000 rpm for 1 min, and incubated at room temperature for 60 min. Finally, 2.5 μL of 4× NP3-301 (final concentration of 0.5 nM) was added, the shallow well plate was sealed, centrifuged at 1000 rpm for 1 min, and incubated at room temperature for 30 min. Envision was used to read the fluorescence polarization values of λex=485+20 nm and kem=535+25 nm. GraphPad Prism 9.5.0 was used to analyze the data, and the IC50 value of the competition between the compound and NP3-301 for binding to His6-Flag-TEV-NLRP3 (134-1036) was fitted by four-parameter logistic. The compounds of the present disclosure have good NLRP3 binding activity, and the test results of some representative compounds are shown in Table 1.

[2] = test system: IL-1β secretion of THP-1 cells; experiment: Effect of NLRP3 inhibitor on IL-1β secretion of THP-1 cells (AlphaLISA); format: cell-based; settings: Homo sapiens; PMA, LPS and Nigericin stimulated THP-1 cells, IL-1β in supernatant; read-out: IC50 (nM), THP-1 cells to detect NLRP3 inhibitors
Procedure: This experiment used the PerkinElmer AlphaLISA_human_IL1β kit (AL220 C/F). The detection buffer was RPMI-1640+10FBS. AlphaLISA Immunoassay Buffer, AlphaLISA Anti-IL1β Acceptor beads, Streptavidin (SA)-coated Donor beads, and Biotinylated Antibody Anti-IL1β were all included in the kit.
The density of THP1 cells was adjusted to 4×10^5 cells/mL, PMA (final concentration 50 nM) was added, inoculated into 96-well flat-bottom plates at 200 μL/well, and stimulated overnight at 37° C., 5% CO2 (try to <16h). The next day, the supernatant was discarded, and the flat washed twice with DPBS ([…]/time). Then LPS solution (final concentration of 100 ng/ml) was added at 198 μL/well, incubated at 37° C., 5% CO2 for 3h. 1 μL of the corresponding concentration of compounds was added to each well according to the experimental MAP, incubated at 37° C., 5% CO2 for 1 h. 1 μL Nigericin (final concentration of […]) was added to each well, incubated overnight at 5% CO2 (>18h). On the third day, 5 μL of supernatant was taken, diluted 20 times, and the content of IL-Iβ in the supernatant was detected by Human Interleukin 1 beta (IL1β) Kit. Envision was used to read the AlphaLISA test value of Ex=680/[…]. GraphPad Prism 9.5.0 was used to analyze the data, and the IC50 value of the compound for IL-Iβ antagonism was fitted by four-parameter Logistic.

hERG ion channel = target: T2, hERG ion channel (Homo sapiens, UniProt Q12809); experiment: hERG ion channel inhibition, manual patch clamp in HEK293 cells; format: cell-based; settings: HEK293 cells stably expressing hERG, read-out: hERG(IC50, manupatch)
T2 construct: host or cells: HEK293
Procedure: This experiment used manual patch clamp electrophysiology to detect the inhibitory effect of compounds on hERG ion channels, and evaluated cardiac safety based on the single concentration inhibition rate or IC50 size of the compounds.
The cells used in this experiment are HEK293 cell lines transfected with hERG cDNA and stably expressing hERG channels (#60187, provided by BPS, P3-P23 generations are used for experimental research). Cells were cultured in a medium containing the following components: MEM medium, 10% (v/v) inactivated fetal bovine serum, 1 mM sodium pyruvate, […] geneticin, 0.1 mM non-essential amino acids, and 100 U penicillin-streptomycin. HEK293 hERG cells were grown in culture flasks containing the above culture medium and cultured in an incubator at 37° C. and 5% CO2. […]
The electrophysiological experiments were performed by a manual patch clamp system (HEKAEPC-10 signal amplifier and digital conversion system, purchased from HEKA Electronics, Germany) to record the whole-cell current. […] After the hERG current recorded in the above steps reaches stability under continuous perfusion of extracellular fluid in the recording tank, different concentrations of the test compound can be perfused until the inhibitory effect of the drug on the hERG current reaches a stable state. […]

[3] = test system: iodoacetic acid (MIA)-induced SD rat knee osteoarthritis model; experiment: Iodoacetic acid (MIA)-induced SD rat knee osteoarthritis model; format: in vivo, SD rats; settings: 30 mg/kg orally once a day from Day 7 to Day 42
Procedure: Purpose: Evaluate the efficacy of MCC950 (Positive reference compound) and compound 111 of the present disclosure on iodoacetic acid (MIA)-induced SD rat knee osteoarthritis model.
Experimental materials: Experimental male SD rats, 4 weeks old.
Model induction began after the experimental animals were adapted to the animal environment for 7 days. Day 0, the rats were anesthetized, the hair around the left knee joint was removed, and the skin was disinfected. The left leg was flexed 90° to expose the patellar platform. The depression in the middle of the platform was touched by hand to find the femoral condyle, patella and ligament. The syringe needle was inserted from the bottom of the patella on both sides of the patellar ligament to the direction of the femoral condyle. When a clear sense of empty space was felt, 50 μL of iodoacetic acid solution was injected. Day 7 Grouping was performed according to the width of the knee joint on the induced side. The groups were: normal control group (healthy control without modeling, 5% DMSO+10% Solutol+85% Saline), model blank control group (5% DMSO+10% Solutol+85% Saline), MCC950 30 mg/kg, and compound 111 of the present disclosure 30 mg/kg. Starting from Day 7, the normal control group and the model blank control group were given the solvent (5% DMSO+10% Solutol+85% Saline) orally once a day, and the other groups were given the corresponding compounds orally once a day until the end of the administration on Day 42. The knee joint width and body weight of the rats were measured once on Day 7, 14, 21, 28, 35, and 42.

T1 sequence (Q96P20 134-1036 limits assumed): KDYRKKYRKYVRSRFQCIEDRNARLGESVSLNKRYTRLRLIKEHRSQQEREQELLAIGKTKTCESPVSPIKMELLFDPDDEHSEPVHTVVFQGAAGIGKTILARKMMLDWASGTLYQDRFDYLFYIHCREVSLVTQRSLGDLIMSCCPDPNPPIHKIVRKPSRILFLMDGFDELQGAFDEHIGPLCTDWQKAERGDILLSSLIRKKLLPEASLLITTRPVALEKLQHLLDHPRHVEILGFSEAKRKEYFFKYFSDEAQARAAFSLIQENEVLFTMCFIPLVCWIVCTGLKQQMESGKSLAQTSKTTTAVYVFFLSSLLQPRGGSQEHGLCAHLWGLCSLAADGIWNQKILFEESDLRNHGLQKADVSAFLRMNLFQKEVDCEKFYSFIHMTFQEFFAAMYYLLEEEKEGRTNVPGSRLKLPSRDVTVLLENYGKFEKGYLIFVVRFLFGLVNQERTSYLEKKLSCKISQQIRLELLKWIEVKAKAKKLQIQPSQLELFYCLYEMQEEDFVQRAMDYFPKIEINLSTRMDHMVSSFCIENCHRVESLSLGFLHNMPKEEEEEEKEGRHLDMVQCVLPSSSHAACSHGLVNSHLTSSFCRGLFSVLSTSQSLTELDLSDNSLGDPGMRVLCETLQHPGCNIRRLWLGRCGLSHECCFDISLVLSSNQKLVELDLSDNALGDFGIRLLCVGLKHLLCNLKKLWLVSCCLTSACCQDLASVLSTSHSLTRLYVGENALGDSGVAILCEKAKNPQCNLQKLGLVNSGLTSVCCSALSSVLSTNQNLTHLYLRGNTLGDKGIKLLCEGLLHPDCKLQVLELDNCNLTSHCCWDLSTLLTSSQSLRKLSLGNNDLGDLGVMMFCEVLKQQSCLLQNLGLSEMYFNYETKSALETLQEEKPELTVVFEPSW
T2 sequence (Q12809 whole entry): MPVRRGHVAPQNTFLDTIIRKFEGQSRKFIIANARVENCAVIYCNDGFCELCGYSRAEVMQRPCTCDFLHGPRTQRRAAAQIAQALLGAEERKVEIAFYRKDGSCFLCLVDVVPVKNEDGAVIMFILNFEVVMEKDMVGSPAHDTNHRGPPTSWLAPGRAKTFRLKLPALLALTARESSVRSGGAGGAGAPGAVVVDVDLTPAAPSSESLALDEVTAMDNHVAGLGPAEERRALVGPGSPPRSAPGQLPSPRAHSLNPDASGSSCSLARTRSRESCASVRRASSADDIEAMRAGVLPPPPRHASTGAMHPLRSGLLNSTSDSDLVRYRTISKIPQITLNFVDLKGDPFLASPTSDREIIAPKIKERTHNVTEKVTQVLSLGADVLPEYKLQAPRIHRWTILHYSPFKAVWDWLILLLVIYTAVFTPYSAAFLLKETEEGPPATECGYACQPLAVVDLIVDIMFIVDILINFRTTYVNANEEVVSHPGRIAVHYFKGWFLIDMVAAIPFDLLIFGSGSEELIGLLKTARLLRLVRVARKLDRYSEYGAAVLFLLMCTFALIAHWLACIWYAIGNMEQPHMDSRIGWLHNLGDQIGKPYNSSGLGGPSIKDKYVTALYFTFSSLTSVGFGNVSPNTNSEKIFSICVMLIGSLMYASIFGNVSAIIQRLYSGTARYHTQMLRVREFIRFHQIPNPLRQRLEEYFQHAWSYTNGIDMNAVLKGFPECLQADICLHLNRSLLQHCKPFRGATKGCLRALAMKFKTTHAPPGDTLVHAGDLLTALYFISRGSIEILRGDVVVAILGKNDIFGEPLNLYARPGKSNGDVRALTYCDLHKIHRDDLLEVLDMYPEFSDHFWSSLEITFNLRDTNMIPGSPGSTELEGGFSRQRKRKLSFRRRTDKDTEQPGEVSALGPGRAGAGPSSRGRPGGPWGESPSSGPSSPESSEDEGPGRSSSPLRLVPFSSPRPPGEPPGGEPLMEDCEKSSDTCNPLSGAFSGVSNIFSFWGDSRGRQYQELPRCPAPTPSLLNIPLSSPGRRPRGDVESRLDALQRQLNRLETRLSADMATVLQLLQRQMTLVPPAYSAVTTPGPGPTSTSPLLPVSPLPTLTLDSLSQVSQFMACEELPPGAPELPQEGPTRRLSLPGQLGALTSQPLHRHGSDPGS

SMILES | IC50 [1] | IC50 [2] | IC50 (hERG ion channel) | body weight of the rats [3] | widening of the knee joints (knee joint width) ([3]; compared with model blank control group, 21 days to 42 days after modeling)
Cc1cc(C(F)(F)F)cc(O)c1-c1ccc2oc(N3CCS(=O)(=O)CC3)nc2n1 [Compound 384] | ≤ 100 nM | < 50 nM | > 30000 nM | – | –
CCN1CCC[C@H](Nc2nc3nc(-c4c(C)cc(C(F)(F)F)cc4O)cc(C)n3n2)C1 [Compound 462] | ≤ 100 nM | < 50 nM | – | – | –
CC(C)(O)c1coc(S(=O)(=O)NC(=O)Nc2c3c(cc4c2CCC4)CCC3)c1 [MCC950] | – | – | – | without affecting the body weight of the rats | could significantly inhibit the widening of the knee joints
